Laboratory results from patent publication US10940150B2, “Thymine derivatives and quinazoline-dione derivatives for the inhibition of HSP27” (TECHNISCHE UNIVERSITAET DRESDEN, priority 2014, dated 2021).

Assays:
HSP27 [1] = molecular target: T1, HSP27 (Homo sapiens, UniProt P04792); assay: Spectrophotometric protein aggregation assay (citrate synthase, HSP27 chaperone function); assay type: biochemical; conditions: for effect on chaperone function of HSP27 (CS aggregation) relative to 750 μmol/L BVDU: 43° C., 500 nm
T1 sequence (P04792 whole entry): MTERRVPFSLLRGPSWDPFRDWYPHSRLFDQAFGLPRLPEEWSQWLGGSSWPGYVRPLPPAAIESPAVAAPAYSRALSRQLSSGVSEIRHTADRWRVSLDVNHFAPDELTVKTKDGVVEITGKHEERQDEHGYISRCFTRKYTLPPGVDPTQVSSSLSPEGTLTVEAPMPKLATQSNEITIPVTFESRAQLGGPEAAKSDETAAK
Method: FIG. 1: a spectrophotometric protein aggregation assay at 43° C., a wavelength of 500 nm and a concentrations of the proteins: 1.44 μmol/L citrate synthase (CS), 481 nmol/L HSP27 (HSP) in a 40 mmol/L HEPES buffer (pH 7.4) during treatment with 14 or 28 μmol/L 2-(3-trichlorovinylphenylamino)-1,9-dihydropurin-6-one (CS+HSP+test substance no. 2), with 750 μmol/L BVDU (CS+HSP+BVDU) and without (CS+HSP; reference);
To measure the efficacy of the purine derivatives according to the invention, robust experiments for the chaperone function of the HSP27 protein were performed:
A known client protein (=substrate on which HSP27 acts as a chaperone) of HSP27 is citrate synthase. Citrate synthase is denatured when the temperature increases to 43° C. This heat denaturation is prevented or delayed by the presence of HSP27 [Jakob U, 1993]. By adding the novel active ingredients, their efficacy can thus be measured through the inhibition of the HSP27 chaperone function.
To determine the activity (i.e. the effect on the aggregation behaviour of the citrate synthase (CS) after thermal incubation) of 2-(3-trichlorovinylphenylamino)-1,9-dihydropurin-6-one in comparison to BVDU, four different batches containing 1.44 μmol/L CS, 481 nmol/L HSP27 (HSP) in a 40 mmol/L HEPES buffer (pH 7.4) were prepared and BVDU (750 μmol/L) or various concentrations of 2-(3-trichlorovinylphenylamino)-1,9-dihydropurin-6-one (14 μmol/L; 28 μmol/L) were added. The samples were then incubated at 43° C. and the aggregation behaviour of the CS was […] in a spectrometer (PerkinElmer LS55, PerkinElmer Inc.) at a wavelength of 500 nm.
It can be seen from FIG. 1 that the protein citrate synthase (graph CS alone) is denatured by increasing the temperature to 43° C. and forms aggregates. The aggregation is measured in the spectrometer at 500 nm (light scattering by protein aggregates). The presence of HSP27 (HSP) counteracts the aggregation (cf. graph, CS+HSP). Since the addition of the test substances (BVDU and 2-(3-trichlorovinylphenylamino)-1,9-dihydropurin-6-one) inhibits the chaperone function of HSP27, the activity of the respective test substance can be determined by measuring the aggregation behaviour of the CS.

HSP27 [2] = molecular target: T1, HSP27; assay: Capillary electrophoresis of heat-denatured citrate synthase protein precipitates; assay type: biochemical; conditions: for times higher activity than BVDU for the inhibition of the HSP27 protein / Efficacy compared with BVDU: 10 μmol/L vs 750 μmol/L BVDU; for times higher activity than BVDU for the inhibition of the HSP27 protein / Rel. quantity of protein prec. CS: 43° C. for 120 minutes; for Rel. quantity of protein prec. CS: 10 μmol/L; for BVDU equivalent dose: based on 100 mg BVDU
Method: (§1) Since the heat-denatured protein aggregates of the citrate synthase from Example 1 are not water-soluble, these can be separated completely from the supernatant by means of centrifugation at room temperature at 16,000×g, 10 min. By using capillary electrophoresis, the compositions of the separated precipitates can be shown and quantified. The relative quantity of protein of precipitated citrate synthase serves as a measure of the efficacy of the test substances.
(§2) In each case, 481 nmol/L HSP27 and 1.44 μmol/L citrate synthase in 40 mmol/L HEPES buffer, pH 7.4, were employed. The relative quantity of protein of the precipitated citrate synthase in each case was normalized using a defined quantity of BSA as internal standard. The relative quantity of protein that precipitated when using 750 μmol/L BVDU was set at 1. The other test substances (2 representatives of phenothiazine derivatives of general formula (V), 2 representatives of purine derivatives of formula (I) or (II)) were each employed at a concentration of 10 μmol/L.
as §1, with “Example 2” for “Example 1”
as §2, with “nM” for “nmol/L”, “thymine” for “purine”, “were” for “were each”, “μmol/L in each case.” for “μmol/L.”
Otherwise, the experiments were performed as described above: […]

RPMI-8226 cells [3] = assay: Development of resistance to bortezomib in RPMI-8226 cells; assay type: cell-based
Method: The cell line RPMI-8226 (DMSZ 402) is a “multiple myeloma” cell line and was chosen because bortezomib is employed as a standard therapy for multiple myeloma. RPMI-8226 cells respond to bortezomib, express HSP27 and develop resistance to Velcade. RPMI-8226 cells were seeded at a cell count of 100,000 cells/ml in each case and regularly passaged. […] In contrast, for RPMI 8226 cells that were treated with 30 μmol/L BVDU, a final cell count of 160,000 cells/ml was detected whereas the final cell count for the culture without the addition of an HSP27 inhibitor amounted to 350,000 cells/ml. As a control, RPMI 8226 cells were treated with the respective test substances alone, FIG. 4b.

RPMI-8226 cells [4] = assay: as above; assay type: cell-based; remark: listed apart in the source
U937 cells = assay: Development of resistance to bortezomib in U937 cells; assay type: cell-based; conditions: bortezomib 0.1-0.5 ng/ml + 0.75 μmol/L test substance (FIG. 11a)
Method: For this purpose, U937 cells (histiocytic lymphoma) were cultured in DMEM culture medium (+10% FCS) at 37° C., 5% CO2 in an H2O-saturated atmosphere. 100,000 cells/ml were seeded and incubated with the cytostatic agent bortezomib (0.1 ng/ml) and the respective test substance (dosage in the current experiment: 1 μM/L acepromazine). The reference substance, BVDU, was employed at a concentration of 30 μM/L. The cells were in each case passaged before the cell count reached 1,000,000 cells/ml. At each passage, 100,000 cells/ml were again seeded and the dose of the cytostatic agent bortezomib was increased stepwise (0.1 ng/mL or 0.05 ng/mL). The concentration of the test substances remained constant. As a result of the stepwise increase in the dosage of the cytostatic agent, resistance developed in the U937 cells. The development of resistance is prevented or inhibited in the case of a positively tested HSP27 inhibitor. The experiments from Example 6 were repeated in the same way, wherein U937 cells (histiocytic lymphoma) are cultured in DMEM culture medium (+10% FCS) at 37° C., 5% CO2 in an H2O-saturated atmosphere. 100,000 cells/ml were seeded and incubated with an initial concentration of 0.2 ng/ml of the cytostatic agent bortezomib and both without an inhibitor and with acepromazine as an HSP27 inhibitor at a concentration of 1 μM/L. The reference substance, BVDU, was employed at a concentration of 30 μM/L. The cells were passaged in each case before the cell count reached 1,000,000 cells/ml. At each passage, 100,000 cells/ml were again seeded and the dose of the cytostatic agent bortezomib was increased stepwise by 0.1 ng/mL. The concentration of the test substance and the reference substance remained constant. As a result of the stepwise increase in the dosage of the cytostatic agent, resistance developed in the U937 cells. The development of resistance is prevented or inhibited in the case of a positively tested HSP27 inhibitor. The cell line U-937 is a histiocytic lymphoma (DSMZ ACC 5). This cell line also responds to treatment with bortezomib, expresses HSP27 and develops resistance to bortezomib. Bortezomib is not the standard therapy for this lymphoma, but is being discussed as a possible therapeutic agent. U-937 cells were seeded with a cell count of 100,000 cells/ml in each case and regularly passaged. […] At the end of the experiment, 70,000 living cells per ml medium could be detected. For the treatment with 30 μmol/L BVDU, a final cell count of 250,000 cells/ml was detected whereas the final cell count in the culture without the addition of an HSP27 inhibitor amounted to 450,000 cells/ml. As a control, U-937 cells were treated with the respective test substances alone, FIG. 10b.

HSP27 [5] = molecular target: T1, HSP27; assay: Bio-layer interferometry binding to HSP27; conditions: wet-chemical experiments
Description: Bio-layer interferometry is a technique for detecting biomolecular interactions. It is an analytical technique that measures the optical interference of white light which is reflected by two surfaces: in each case, one surface consists of a layer of the immobilized target protein on the tip of the biosensor and one is an internal reference surface. The binding of ligands to the target protein alters the interference pattern and can be measured in real time.
For the measurements, an instrument of the ForteBio Octet Red 384 brand was used. The target protein HSP27 was biotinylated and bound to the appropriate sensors (SSA). […]
For measurements by bio-layer interferometry, biotinylated HSP27 protein was first bound to Super-Streptavidin sensors (SSA, Fortebio). […] In the case of a specific binding to HSP27 of the analyte to be measured, the loaded HSP27 sensor generates a stronger signal (response) than the concurrent reference sensor. After the “baseline” has been established by incubation with the reaction buffer (PBST 0.1% Tween 20 plus 3% DMSO), first the association and then the dissociation of the respective analyte is measured in real time. The analytes were measured in increasing concentrations in each case: 1.23-3.7-11.11-33.33-100-300 μM/l.

[6] = 43° C. for 120 minutes (Table 1)
[7] = relative to 750 μmol/L BVDU = 1 (Table 1)
[8] = 43° C. for 120 minutes (Table 2)
[9] = relative to 750 μmol/L BVDU = 1 (Table 2)

| effect on chaperone function of HSP27 (CS aggregation) relative to 750 μmol/L BVDU (HSP27 [1]; 14 μmol/L) | effect on chaperone function of HSP27 (CS aggregation) relative to 750 μmol/L BVDU (HSP27 [1]; 28 μmol/L) | BVDU equivalent dose (HSP27 [1]; based on 100 mg BVDU) | times higher activity than BVDU for the inhibition of the HSP27 protein (HSP27 [2]) [times] | Efficacy compared with BVDU (HSP27 [2]; [6]) [x] | Rel. quantity of protein prec. CS (HSP27 [2]; [7]) | BVDU equivalent dose (HSP27 [2]) | Efficacy compared with BVDU (HSP27 [2]; [8]) [x] | Rel. quantity of protein prec. CS (HSP27 [2]; [9]) | affinity for interaction with HSP27 (HSP27 [5]) | Structure (SMILES) | development of resistance to the cytostatic agent bortezomib (RPMI-8226 cells [3]; bortezomib 0.1-0.3 ng/ml + 1 μmol/L test substance (FIG. 7a)) | living cells at the end of the experiment (RPMI-8226 cells [4]; bortezomib 0.1-0.3 ng/ml + 1 μmol/L test substance (FIG. 7a), without HSP27 inhibitor 950,000 cells/ml) | development of resistance to the cytostatic agent bortezomib (U937 cells) | living cells at the end of the experiment (U937 cells; without HSP27 inhibitor 450,000 cells/ml) | development of resistance to the cytostatic agent bortezomib (RPMI-8226 cells [4]; bortezomib 0.1-0.3 ng/ml + 1 μM/L test substance (FIG. 6a)) | living cells at the end of the experiment (RPMI-8226 cells [4]; bortezomib 0.1-0.3 ng/ml + 1 μM/L test substance (FIG. 6a), without HSP27 inhibitor 950,000 cells/ml) | development of resistance to the cytostatic agent bortezomib (RPMI-8226 cells [3]; bortezomib 0.075-0.275 ng/ml + 1 μmol/L test substance (FIG. 8a)) | living cells at the end of the experiment (RPMI-8226 cells [4]; bortezomib 0.075-0.275 ng/ml + 1 μmol/L test substance (FIG. 8a), without HSP27 inhibitor 510,000 cells/ml) | development of resistance to the cytostatic agent bortezomib (RPMI-8226 cells [3]; bortezomib 0.2-0.4 ng/ml + 0.5 μmol/L chlorpromazine (FIG. 5a)) | living cells at the end of the experiment (RPMI-8226 cells [3]; bortezomib 0.2-0.4 ng/ml + 0.5 μmol/L chlorpromazine (FIG. 5a), without HSP27 inhibitor 350,000 cells/ml) |
| --- | --- | --- | --- | --- | --- | --- | --- | --- | --- | --- | --- | --- | --- | --- | --- | --- | --- | --- | --- | --- |
| comparable effect | significantly more pronounced effect | less than 1.9 mg | 53 | 53.25 | 0.71 | less than 1.9 mg |  |  |  | O=c1[nH]c(Nc2cccc(C(Cl)=C(Cl)Cl)c2)nc2[nH]cnc12 [2-(3-trichlorovinylphenylamino)-1,9-dihydropurin-6-one] | significantly inhibited | 270,000 living cells per ml medium |  |  |  |  |  |  |  |  |
|  |  |  | 69 | 69.0 | 0.92 | 1.4 mg |  |  |  | CCCCc1ccc(Nc2nc3c(ncn3COCCO)c(=O)[nH]2)cc1 [2-(4-butylphenylamino)-9-(2-hydroxyethoxymethyl)-1,9-dihydropurin-6-one] |  |  | significantly inhibited | 30,000 living cells per ml medium | significantly inhibited | 240,000 living cells per ml medium |  |  |  |  |
|  |  |  | 49 |  |  | less than 2 mg | 48.75 | 0.65 |  | Cc1cn(CC=CCNC(=O)C2c3ccccc3Oc3ccccc32)c(=O)[nH]c1=O [9H-xanthene-9-carboxylic acid [4-(5-methyl-2,4-dioxo-3,4-dihydro-2H-pyrimidin-1-yl)-but-2-enyl]amide] |  |  |  |  |  |  | significantly inhibited | 290,000 living cells per ml medium |  |  |
|  |  |  |  | 79.5 | 1.06 |  | 79.5 | 1.06 | only a low affinity | CN(C)CCCN1c2ccccc2Sc2ccc(Cl)cc21 [Chlorpromazine, reference compound] |  |  |  |  |  |  |  |  | significantly inhibited | 70,000 living cells per ml medium |
